From PubChem BioAssay AID248 (DTP/NCI, 2004)
“And” between values parts separate entries of the source, which are not always exact repeats. Equal values may be shown once. Toxic doses and inconclusive results are not listed.

System: L1210 leukemia ip in BDF1 mice, survival T/C
Assay: NCI In Vivo Anticancer Drug Screen. Data for tumor model L1210 Leukemia (intraperitoneal) in B6D2F1 (BDF1) mice
Conditions: endpoint: mean survival time, higher = longer survival
Method in brief: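 Tumor was transplanted into mice, which were then dosed with test compound or vehicle alone. Survival was recorded for each group, and the treated figure was expressed relative to the control figure.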

[1] = dose: 50.0 mg/kg/injection, schedule: Q04DX003 (ip), vehicle: saline with Tween-80
[2] = dose: 100.0 mg/kg/injection, schedule: Q01DX009 (ip), vehicle: saline with Tween-80
[3] = dose: 100.0 mg/kg/injection, schedule: Q04DX003 (ip), vehicle: saline with Tween-80
[4] = dose: 200.0 mg/kg/injection, schedule: Q01DX009 (ip), vehicle: saline with Tween-80
[5] = dose: 200.0 mg/kg/injection, schedule: Q04DX003 (ip), vehicle: saline with Tween-80
[6] = dose: 400.0 mg/kg/injection, schedule: Q04DX003 (ip), vehicle: saline with Tween-80
[7] = dose: 100.0 mg/kg/injection, schedule: Q04DX002 (ip), vehicle: Klucel (hydroxypropylcellulose) (HPC)
[8] = dose: 200.0 mg/kg/injection, schedule: Q04DX002 (ip), vehicle: Klucel (hydroxypropylcellulose) (HPC)
[9] = dose: 400.0 mg/kg/injection, schedule: Q04DX002 (ip), vehicle: Klucel (hydroxypropylcellulose) (HPC)
[10] = dose: 100.0 mg/kg/injection, schedule: Q01DX001 (ip), vehicle: other
[11] = dose: 100.0 mg/kg/injection, schedule: Q01DX009 (ip), vehicle: other
[12] = dose: 200.0 mg/kg/injection, schedule: Q01DX001 (ip), vehicle: other
[13] = dose: 400.0 mg/kg/injection, schedule: Q01DX001 (ip), vehicle: other
[14] = dose: 100.0 mg/kg/injection, schedule: Q04DX003 (ip), vehicle: saline
[15] = dose: 200.0 mg/kg/injection, schedule: Q04DX003 (ip), vehicle: saline
[16] = dose: 400.0 mg/kg/injection, schedule: Q04DX003 (ip), vehicle: saline

O=C1NC(=O)C2(CCCCCC2)N1
T/C (dose: 50.0 mg/kg/injection, schedule: Q01DX009 (ip), vehicle: saline with Tween-80): 101 % of control | T/C [1]: 105 % of control | T/C (dose: 100.0 mg/kg/injection, schedule: Q01DX009 (ip), vehicle: saline sonified): 90 % of control | T/C [2]: 101 % of control | T/C [3]: 99 % of control and 111 % of control | T/C (dose: 200.0 mg/kg/injection, schedule: Q01DX009 (ip), vehicle: saline sonified): 96 % of control | T/C [4]: 98 % of control | T/C [5]: 100 % of control and 110 % of control | T/C (dose: 400.0 mg/kg/injection, schedule: Q01DX009 (ip), vehicle: saline sonified): 98 % of control | T/C [6]: 106 % of control

O=Cc1ccc([N+](=O)[O-])s1
T/C [2]: 101 % of control | T/C [3]: 102 % of control | T/C [4]: 97 % of control | T/C [5]: 110 % of control | T/C (dose: 400.0 mg/kg/injection, schedule: Q01DX009 (ip), vehicle: saline with Tween-80): 101 % of control | T/C [6]: 121 % of control

O=C(COc1cc(Cl)c(Cl)cc1Cl)Nc1ccc(Cl)cc1
T/C [7]: 103 % of control | T/C [8]: 106 % of control | T/C [9]: 103 % of control

CCCNC(=O)Oc1ccc(C2CCCCC2)cc1
T/C [10]: 100 % of control | T/C [11]: 104 % of control and 87 % of control | T/C [7]: 110 % of control | T/C (dose: 100.0 mg/kg/injection, schedule: Q04DX002 (ip), vehicle: other): 105 % of control and 109 % of control | T/C (dose: 100.0 mg/kg/injection, schedule: Q04DX003 (ip), vehicle: other): 100 % of control | T/C [12]: 100 % of control | T/C (dose: 200.0 mg/kg/injection, schedule: Q01DX009 (ip), vehicle: other): 103 % of control and 111 % of control | T/C [8]: 100 % of control | T/C (dose: 200.0 mg/kg/injection, schedule: Q04DX002 (ip), vehicle: other): 95 % of control and 111 % of control | T/C (dose: 200.0 mg/kg/injection, schedule: Q04DX003 (ip), vehicle: other): 102 % of control | T/C [13]: 97 % of control | T/C (dose: 400.0 mg/kg/injection, schedule: Q01DX009 (ip), vehicle: other): 101 % of control and 112 % of control | T/C (dose: 400.0 mg/kg/injection, schedule: Q04DX002 (ip), vehicle: other): 95 % of control and 107 % of control | T/C (dose: 400.0 mg/kg/injection, schedule: Q04DX003 (ip), vehicle: other): 104 % of control

N#CCCN(Cc1ccccc1)C(=S)Nc1ccc(C(F)(F)F)cc1
T/C [7]: 100 % of control | T/C [8]: 100 % of control | T/C [9]: 100 % of control

CN(C)c1ccc(/C=C/C(=O)c2ccc([N+](=O)[O-])cc2)cc1
T/C (dose: 3.0 mg/kg/injection, schedule: Q01DX009 (ip), vehicle: gum acacia): 100 % of control | T/C (dose: 6.0 mg/kg/injection, schedule: Q01DX009 (ip), vehicle: gum acacia): 96 % of control | T/C (dose: 12.0 mg/kg/injection, schedule: Q01DX009 (ip), vehicle: gum acacia): 94 % of control | T/C (dose: 12.5 mg/kg/injection, schedule: Q01DX009 (ip), vehicle: gum acacia): 91 % of control | T/C (dose: 100.0 mg/kg/injection, schedule: Q01DX009 (ip), vehicle: gum acacia): 87 % of control | T/C (dose: 100.0 mg/kg/injection, schedule: Q04DX003 (ip), vehicle: gum acacia): 89 % of control | T/C (dose: 200.0 mg/kg/injection, schedule: Q04DX003 (ip), vehicle: gum acacia): 86 % of control | T/C (dose: 400.0 mg/kg/injection, schedule: Q01DX009 (ip), vehicle: gum acacia): 96 % of control | T/C (dose: 400.0 mg/kg/injection, schedule: Q04DX003 (ip), vehicle: gum acacia): 89 % of control

COc1ccccc1-n1c(O)c(N=Nc2ccccc2C)c(=O)n(-c2ccc(I)cc2)c1=S
T/C (dose: 37.5 mg/kg/injection, schedule: Q01DX001 (ip), vehicle: Klucel (hydroxypropylcellulose) (HPC)): 89 % of control | T/C (dose: 75.0 mg/kg/injection, schedule: Q01DX001 (ip), vehicle: Klucel (hydroxypropylcellulose) (HPC)): 92 % of control | T/C (dose: 150.0 mg/kg/injection, schedule: Q01DX001 (ip), vehicle: Klucel (hydroxypropylcellulose) (HPC)): 97 % of control

Cn1c(=O)oc2ccccc2c1=O
T/C [14]: 98 % of control | T/C [15]: 97 % of control | T/C [16]: 109 % of control

Cc1c(C(=O)N(C)C)no[n+]1[O-]
T/C (dose: 25.0 mg/kg/injection, schedule: Q04DX002 (ip), vehicle: saline): 102 % of control | T/C (dose: 50.0 mg/kg/injection, schedule: Q04DX002 (ip), vehicle: saline): 106 % of control | T/C (dose: 100.0 mg/kg/injection, schedule: Q04DX002 (ip), vehicle: saline): 98 % of control

CCOC1c2cnc(C)n2C=CN1C(C)=O (stereo unspecified)
T/C (dose: 50.0 mg/kg/injection, schedule: Q01DX009 (ip), vehicle: water): 96 % of control | T/C (dose: 100.0 mg/kg/injection, schedule: Q01DX009 (ip), vehicle: water): 94 % of control | T/C (dose: 100.0 mg/kg/injection, schedule: Q04DX003 (ip), vehicle: water): 116 % of control | T/C (dose: 200.0 mg/kg/injection, schedule: Q04DX003 (ip), vehicle: water): 115 % of control

CCOP(=O)(OCC)O/N=C(/C)c1cccc([N+](=O)[O-])c1
T/C (dose: 5.0 mg/kg/injection, schedule: Q01DX001 (ip), vehicle: saline): 100 % of control | T/C (dose: 10.0 mg/kg/injection, schedule: Q01DX001 (ip), vehicle: saline): 97 % of control

CSc1ccc(OC(=O)Nc2ccc(C)c([N+](=O)[O-])c2)cc1C
T/C [2]: 89 % of control | T/C [4]: 89 % of control

O=NN(CCO)C(=O)Nc1c[nH]c(=O)[nH]c1=O
T/C (dose: 12.5 mg/kg/injection, schedule: Q01DX001 (ip), vehicle: carboxymethylcellulose (CMC)): 118 % of control | T/C (dose: 25.0 mg/kg/injection, schedule: Q01DX001 (ip), vehicle: carboxymethylcellulose (CMC)): 118 % of control | T/C (dose: 50.0 mg/kg/injection, schedule: Q01DX001 (ip), vehicle: carboxymethylcellulose (CMC)): 122 % of control | T/C (dose: 400.0 mg/kg/injection, schedule: Q01DX001 (ip), vehicle: carboxymethylcellulose (CMC)): 190 % of control

Cn1c(=O)c2c(ncn2CCO)n(C)c1=O
T/C (dose: 100.0 mg/kg/injection, schedule: Q01DX001 (ip), vehicle: saline): 100 % of control | T/C (dose: 100.0 mg/kg/injection, schedule: Q01DX009 (ip), vehicle: saline): 99 % of control | T/C [14]: 104 % of control | T/C (dose: 200.0 mg/kg/injection, schedule: Q01DX001 (ip), vehicle: saline): 104 % of control | T/C (dose: 200.0 mg/kg/injection, schedule: Q01DX009 (ip), vehicle: saline): 100 % of control | T/C [15]: 101 % of control | T/C (dose: 400.0 mg/kg/injection, schedule: Q01DX001 (ip), vehicle: saline): 102 % of control | T/C (dose: 400.0 mg/kg/injection, schedule: Q01DX009 (ip), vehicle: saline): 105 % of control | T/C [16]: 100 % of control

CC(=O)N1CC(=O)NC1=S
T/C (dose: 100.0 mg/kg/injection, schedule: Q01DX001 (ip), vehicle: Klucel (hydroxypropylcellulose) (HPC)): 115 % of control | T/C (dose: 200.0 mg/kg/injection, schedule: Q01DX001 (ip), vehicle: Klucel (hydroxypropylcellulose) (HPC)): 107 % of control | T/C (dose: 400.0 mg/kg/injection, schedule: Q01DX001 (ip), vehicle: Klucel (hydroxypropylcellulose) (HPC)): 95 % of control

COc1ccc([N+](=O)[O-])cc1NC(=O)Nc1cccc(C(F)(F)F)c1
T/C [7]: 96 % of control | T/C [8]: 101 % of control | T/C [9]: 96 % of control

O=C1OC(c2ccccc2)=NC1(c1ccccc1)C1(c2ccccc2)N=C(c2ccccc2)OC1=O (stereo unspecified)
T/C [3]: 88 % of control | T/C [5]: 93 % of control | T/C [6]: 86 % of control

Oc1ccccc1C=Nc1ccccc1O.[Zn+2]
T/C [10]: 94 % of control | T/C [12]: 91 % of control | T/C [13]: 91 % of control

N#Cc1nccnc1Cl
T/C (dose: 12.5 mg/kg/injection, schedule: Q04DX003 (ip), vehicle: saline with Tween-80): 96 % of control | T/C (dose: 25.0 mg/kg/injection, schedule: Q01DX009 (ip), vehicle: other): 95 % of control | T/C (dose: 25.0 mg/kg/injection, schedule: Q04DX003 (ip), vehicle: saline with Tween-80): 99 % of control | T/C (dose: 50.0 mg/kg/injection, schedule: Q01DX009 (ip), vehicle: other): 93 % of control | T/C [1]: 86 % of control | T/C [11]: 109 % of control

CC(C)=CCCC(=O)Oc1ccccc1C(=O)O
T/C [14]: 99 % of control | T/C [15]: 91 % of control | T/C [16]: 93 % of control
